The values that follow come from patent publication US20250387405A1 (priority 2021, published 2025).

The structures appear in SMILES notation. Where two headings read alike, the source gives them in different places.

Data set [1] is classed as physicochemical. The conditions noted are these: for Content of OXA/% / Content of CBT/%: 60° C.; for crystal structure: high temperature (60° C.) test.
Data set [2] is classed as physicochemical. The following applies: for Content of OXA/% / Content of CBT/%: light; for crystal structure: light stability test.
A short description of data set [3]: Equilibrium solubility in water by HPLC. The following applies: for equilibrium solubility in water (25° C.): HPLC.
For data set [4], the system named is Human fibroblast-like synovial cell rheumatoid arthritis (HFLS-RA) cells. Description: Proliferation of HFLS-RA cells. Format: cell-based. As for the experimental part: Human fibroblast-like synovial cell rheumatoid arthritis (HFLS-RA) cells were cultured in vitro and their proliferation was measured by quantifying the number of cells 48 h after treatment.

Data set [5] has as its system Human MH7A synovial cells. Nature of the data set: Proliferation of MH7A cells. Format: cell-based. As for the experimental part: Human MH7A synovial cells were cultured in vitro and measured by quantifying the number of cells 48 h after treatment Proliferation.
Setting [6] is: 48 h after treatment, 1.563-100 μg/mL.

With `O=C(O)C1(C(=O)O)CCC1.O=C1[O][Pt]2([NH]C3CCCCC3[NH]2)[O]C1=O` (centres unmarked) [OXA-CBDA, oxaliplatin-1,1-cyclobutane dicarboxylic acid cocrystal], the “Content of OXA/%” value is recorded as 100% in data set [1] (Day 0); 100% in data set [1] (Day 1); 99.98% in data set [1] (Day 3); 99.12% in data set [1] (Day 5); 99.45% in data set [1] (Day 10); 99.57% in data set [1] (Day 15). Besides, the “Content of OXA/%” value in data set [2] (Day 0) is given as 100%; in data set [2] (Day 1), 100%; in data set [2] (Day 3), 100%; in data set [2] (Day 5), 99.56%; in data set [2] (Day 10), 99.97%; in data set [2] (Day 15), 99.30%.

On to `N.N.O=C([O-])C1(C(=O)[O-])CCC1.[Pt+2]` [CBT, carboplatin, reference compound], for which the “Content of CBT/%” value in data set [1] (Day 0) stood at 100%; in data set [1] (Day 1) it was 99.76%; in data set [1] (Day 3), 99.29%; in data set [1] (Day 5), 99.16%; in data set [1] (Day 10) it was 99.27%; in data set [1] (Day 15), 99.82%. The “Content of CBT/%” value came out at 100% in data set [2] (Day 0); 99.37% in data set [2] (Day 1); 99.84% in data set [2] (Day 3); 99.31% in data set [2] (Day 5); 98.29% in data set [2] (Day 10); 98.82% in data set [2] (Day 15). The crystal structure entry in data set [1] and in data set [2] was “unchanged” throughout. In addition, the “equilibrium solubility in water (25° C.)” value in data set [3] was 12.7 mg/mL.

Regarding `O=C1[O][Pt]2([NH]C3CCCCC3[NH]2)[O]C1=O.OCC1OC(Oc2cc(O)cc(C=Cc3ccc(O)cc3)c2)C(O)C(O)C1O` (centres unmarked) [OXA-PDT, oxaliplatin-polydatin cocrystal], the “Content of OXA/%” value in data set [1] (Day 0) is 100%; in data set [1] (Day 1), 100%; in data set [1] (Day 3) it was 100%; in data set [1] (Day 5), 99.73%; in data set [1] (Day 10), 99.63%; in data set [1] (Day 15) it was 99.87%. Besides, the “Content of OXA/%” value in data set [2] (Day 0) was determined as 100%; in data set [2] (Day 1), 100%; in data set [2] (Day 3), 99.97%; in data set [2] (Day 5), 99.88%; in data set [2] (Day 10), 99.44%; in data set [2] (Day 15), 99.91%. In addition, the crystal structure entry in data set [1] and in data set [2] was “unchanged” each time.

`CCN(CC)CCCC(C)Nc1ccnc2cc(Cl)ccc12.O=C1[O][Pt]2([NH]C3CCCCC3[NH]2)[O]C1=O` (centres unmarked) [OXA-U72, oxaliplatin-chloroquine cocrystal]: the “Content of OXA/%” value is on record as 100% in data set [1] (Day 0); 100% in data set [1] (Day 1); 99.38% in data set [1] (Day 3); 99.46% in data set [1] (Day 5); 99.33% in data set [1] (Day 10); 99.46% in data set [1] (Day 15). In addition, the “Content of OXA/%” value in data set [2] (Day 0) came to 100%; in data set [2] (Day 1), 100%; in data set [2] (Day 3), 99.21%; in data set [2] (Day 5), 99.64%; in data set [2] (Day 10) it was 99.33%; in data set [2] (Day 15), 99.64%. Also, the crystal structure result in data set [1] is reported as “unchanged”.

`CCN(CC)CCCC(C)Nc1ccnc2cc(Cl)ccc12.[NH2][Pt]1([NH2])[O]C(=O)C2(CCC2)C(=O)[O]1` (centres unmarked) [CBT-U72, carboplatin-chloroquine cocrystal]: the “Content of CBT/%” value in data set [1] (Day 0) is 100%; in data set [1] (Day 1), 100%; in data set [1] (Day 3), 99.66%; in data set [1] (Day 5) it was 99.84%; in data set [1] (Day 10), 99.67%; in data set [1] (Day 15) it was 99.97%. For the same compound, the “Content of CBT/%” value was determined as 100% in data set [2] (Day 0); 100% in data set [2] (Day 1); 99.20% in data set [2] (Day 3); 99.24% in data set [2] (Day 5); 99.57% in data set [2] (Day 10); 99.92% in data set [2] (Day 15). Also, the crystal structure result in data set [1] is “unchanged”.

For `O=C1[O][Pt]2([NH][C@@H]3CCCC[C@H]3[NH]2)[O]C1=O` [OXA, oxaliplatin, reference compound], the “Content of OXA/%” value in data set [1] (Day 0) was found to be 100%; in data set [1] (Day 1) it was 98.36%; in data set [1] (Day 3), 99.33%; in data set [1] (Day 5), 99.18%; in data set [1] (Day 10), 99.09%; in data set [1] (Day 15), 98.21%. In addition, the “Content of OXA/%” value in data set [2] (Day 0) was found to be 100%; in data set [2] (Day 1) it was 98.87%; in data set [2] (Day 3), 99.32%; in data set [2] (Day 5), 96.89%; in data set [2] (Day 10), 99.45%; in data set [2] (Day 15), 98.01%. For the same compound, the crystal structure result in data set [1] and in data set [2] was “unchanged” throughout. The “IC50, proliferation of HFLS-RA” value in data set [4] (setting [6]) came out at 4.56 µg/mL. Also, in data set [4] (FIG. 6), the “proliferation of HFLS-RA cells inhibited” value is listed as 99%. Further, the “IC50, proliferation of MH7A” value in data set [5] (setting [6]) came out at 8.91 µg/mL. In addition, the “proliferation of MH7A cells inhibited” value in data set [5] (FIG. 7) stood at 99%.

Turning to `OCC1OC(Oc2cc(O)cc(C=Cc3ccc(O)cc3)c2)C(O)C(O)C1O.[NH2][Pt]1([NH2])[O]C(=O)C2(CCC2)C(=O)[O]1` (centres unmarked) [CBT-PDT, carboplatin-polydatin cocrystal], the “Content of CBT/%” value in data set [1] (Day 0) was 100%; in data set [1] (Day 1), 100%; in data set [1] (Day 3), 99.27%; in data set [1] (Day 5), 99.08%; in data set [1] (Day 10), 99.69%; in data set [1] (Day 15) it was 99.83%. Further, the “Content of CBT/%” value in data set [2] (Day 0) is 100%; in data set [2] (Day 1) it was 100%; in data set [2] (Day 3), 100%; in data set [2] (Day 5) it was 99.60%; in data set [2] (Day 10), 99.72%; in data set [2] (Day 15), 99.29%. The crystal structure entry in data set [1] and in data set [2] was “unchanged” each time. Further, the “equilibrium solubility in aqueous solution compared with oxaliplatin or carboplatin, respectively” value in data set [3] (aqueous solution, versus parent platinum drug) was “higher”. For the same compound, the “equilibrium solubility in water (25° C.)” value in data set [3] was found to be 16.2 mg/mL.
